Data on ten molecules can be found in publication PMC8346139, “Synthesis of New Tricyclic 1,2-Thiazine Derivatives with Anti-Inflammatory Activity” (International Journal of Molecular Sciences, 2021).

Data set [1] concerns NHDF cells. In words: DCF-DA assay of reactive oxygen species (ROS). The conditions noted are these: 1 h treatment; 10, 50 and 100 µM; compared to control. Type of data set: cell-based, Human. On the procedure:
The level of reactive oxygen species (ROS) was evaluated in DCF-DA assay and nitric oxide (NO) in Griess assay, on NHDF cells. […] This increase may be due to the normal cellular activity due to the increased cell numbers, probably resulting from proliferation.
(§1) The 1,2-thiazine derivatives were dissolved in DMSO to a stock concentration of 10 mM. All prepared stock solutions were stored at −20 °C for up to 6 months. For the experiment, the compounds tested were used in the concentration range of 10, 50 and 100 μM. […] The abovementioned tested compounds were tested on NHDF cells.
Levels of reactive oxygen species (ROS) and nitric oxide (NO) were evaluated in DCF-DA (2′,7′-dichlorofluorescein diacetate) and Griess (cat. No. G7921; Thermo Fisher Scientific, Waltham, MA, USA) assays, respectively. In these assays, the cells were treated with tested compounds only for 1 h. After that time, the 50 µL of supernatant were transferred into new plates to assess the NO level. The remaining supernatant was removed, the cell culture was washed, and the 25 µM DCF-DA solution was added for 1 h at 37 °C. […] The plates with DCF-DA solution were analyzed with the Varioskan LUX microplate reader (λex = 485 nm and λem = 535 nm). The NO level was analyzed by the measurement of the absorbance at 548 nm using VariuScan microplate reader.

Data set [2] addresses T1, ovine COX-1 (Ovis aries, UniProt P05979).
T1 sequence (P05979 25-600): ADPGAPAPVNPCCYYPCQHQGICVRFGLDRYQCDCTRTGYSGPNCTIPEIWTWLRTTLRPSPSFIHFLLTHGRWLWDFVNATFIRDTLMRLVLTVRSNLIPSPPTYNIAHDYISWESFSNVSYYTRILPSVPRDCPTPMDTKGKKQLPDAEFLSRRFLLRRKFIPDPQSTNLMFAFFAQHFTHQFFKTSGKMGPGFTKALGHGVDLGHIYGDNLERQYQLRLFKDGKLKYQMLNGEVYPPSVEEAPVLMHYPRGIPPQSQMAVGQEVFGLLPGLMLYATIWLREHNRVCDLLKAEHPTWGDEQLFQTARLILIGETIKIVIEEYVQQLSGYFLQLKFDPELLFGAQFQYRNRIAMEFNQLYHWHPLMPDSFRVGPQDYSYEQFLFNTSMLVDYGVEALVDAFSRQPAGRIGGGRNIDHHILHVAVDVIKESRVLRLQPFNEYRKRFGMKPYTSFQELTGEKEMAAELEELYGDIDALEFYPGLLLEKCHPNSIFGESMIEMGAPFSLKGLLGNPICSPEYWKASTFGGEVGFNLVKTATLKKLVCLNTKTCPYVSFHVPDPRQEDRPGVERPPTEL
Description: COX colorimetric inhibitor screening assay, COX-1.
Description: (§2) The selectivity of the compounds for COX-1 or COX-2 was assessed by calculation of the IC50 ratios.
(§3) The compounds were dissolved in ethanol to get the final concentration of 100 µM. Each tested solution of compounds was transferred into a 96-well plate in three repetitions and then incubated for 2 min at RT with prepared reagents according to the manufacturing procedure. This assay measured the peroxidase component of COXs, which is evaluated as monitoring the oxidized form of N, N, N’, N’-tetramethyl-p-phenylenediamine (TMPD). The absorbance was measured using a VariuScan microplate reader at 590 nm. The data were calculated according to 3 steps. First, the average absorbance of all the samples was determined. Second, the absorbance of the background wells was subtracted from the absorbance of 100% of the starting COX-1 and COX-2 activity and the test compound wells.

Data set [3] addresses T2, human recombinant COX-2 (Homo sapiens, UniProt P35354).
T2 sequence (P35354 18-604): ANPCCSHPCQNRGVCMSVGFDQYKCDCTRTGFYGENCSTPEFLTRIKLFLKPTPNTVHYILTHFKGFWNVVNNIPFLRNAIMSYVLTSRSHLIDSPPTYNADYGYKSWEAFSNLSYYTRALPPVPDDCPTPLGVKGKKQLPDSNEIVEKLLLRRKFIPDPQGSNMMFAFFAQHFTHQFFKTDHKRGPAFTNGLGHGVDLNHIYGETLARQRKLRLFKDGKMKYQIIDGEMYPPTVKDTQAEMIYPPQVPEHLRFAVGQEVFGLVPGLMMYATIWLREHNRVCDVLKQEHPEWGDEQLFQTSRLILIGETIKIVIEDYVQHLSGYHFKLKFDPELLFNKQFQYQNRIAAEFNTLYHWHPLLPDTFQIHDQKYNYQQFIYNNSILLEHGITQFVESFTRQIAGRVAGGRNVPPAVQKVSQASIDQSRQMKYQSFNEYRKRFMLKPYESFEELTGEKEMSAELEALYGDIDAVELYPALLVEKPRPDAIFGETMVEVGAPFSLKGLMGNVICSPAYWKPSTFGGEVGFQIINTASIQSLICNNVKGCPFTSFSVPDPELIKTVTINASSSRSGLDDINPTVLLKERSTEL
In words: COX colorimetric inhibitor screening assay, COX-2. The following applies: for COX-2/COX-1 selectivity compared with meloxicam: comparison of IC50 ratios; for COX-2 inhibition effect compared with meloxicam: comparison of IC50 values; for Ratio: COX-2/COX-1: ratio of IC50 values COX-2/COX-1.
Description: as §2, §3

Data set [4] has as its system NHDF cells. Description: MTT viability assay. The conditions noted are these: 24 h incubation; for Mitochondrial activity of NHDF cells: 10 µM and 50 µM, compared to control; for Mitochondrial activity of NHDF cells / Cytotoxic effect on NHDF cells: MTT; for Cytotoxic effect on NHDF cells: 10, 50 and 100 µM. Format: cell-based, Human. On the procedure: The viability of the Normal Human Dermal Fibroblasts (NHDF) cells was assessed after 24 h incubation with 10, 50 and 100 µM tested compounds in MTT assay. […] The less than 30% decrease in culture viability was observed only in concentration of 100 µM for compound 6b in comparison to control (i.e., no cytotoxic potential of tested compound). […] Thus, all new compounds were directed to further research.
The study was carried out using the NHDF cell line obtained from ATCC (Manassas, VA, USA). These cells are commonly used to determine the cytotoxicity of new compounds. Cells were cultured at 37 °C in a humidified 5% CO2/95% air atmosphere incubator and passaged twice a week.
as §1
The viability of the cells was assessed after 24 h incubation with 10–100 µM tested compounds in MTT assay. After incubation, cell culture with a 1 mg/mL solution of MTT for 2 h at 37 °C, the formazan crystals were dissolved in isopropanol. The plates were then shaken for 30 min, and the absorbance was measured at 570 nm using VariuScan microplate reader.

Data set [5] in a line: Differential scanning calorimetry (DSC) of DPPC model membranes. The following applies: pH 7.4, molar ratios 0.06–0.12. Type of data set: physicochemical. (In general: In DSC, transitions show as peaks or steps in heat flow.)
Description: To investigate the interaction of the tricyclic 1,2-thiazine derivatives (Table 1) with model membranes, we used the differential scanning calorimetry (DSC) method. As a model of the phospholipid membrane, the multibilayers made of 1,2-dipalmitoyl-n-glycero-3-phosphatidylcholine (DPPC) in a buffer solution (pH 7.4) were used.
Tris-EDTA buffer solution (pH 7.4) and 1,2-dipalmitoyl-n-glycero-3-phosphatidyl- choline (DPPC) were purchased from Sigma-Aldrich, Merck KGaA, Darmstadt, Germany. None of the compounds studied were soluble in water, so their chloroform (P.P.H. STANLAB, Lublin, Poland, analytical grade) solutions were used for calorimetric experiments.
For each sample, 2 mg of phospholipid (DPPC) were dissolved in the appropriate amount of chloroform stock solution (5 mM) of the compounds studied (the compound: DPPC molar ratios in the samples were: 0.06, 0.08, 0.10, 0.12). The solvent was then evaporated under a stream of nitrogen gas. After that, the residual solvent was evacuated under vacuum (Rotary evaporator, Büchy Poland, Warsaw, Poland) for 2 h. In this process, the phospholipid was transferred onto the dry film on the inner surface of the Eppendorf tube. Samples were hydrated by 20 μL of Tris–EDTA buffer (pH 7.4). […] Then, the samples were transferred into aluminum sample pans of the Concavus® type (Netzsch GmbH & Co., Selb, Germany) and sealed. A pan of the same type, filled with 20 μL of Tris–EDTA buffer (pH 7.4), was employed as a reference. Measurements of the DPPC main phase transition were performed using the heat-flow measurement method at a heating rate of 1 °C per minute over a temperature range of 30–50 °C in a nitrogen dynamic atmosphere (25 mL/min). Data were analyzed off-line using Netzsch Proteus® 7.1.0 (Netzsch GmbH & Co., Selb, Germany) analysis software. The transition enthalpies were stated in [J/g]. The measured heat was normalized per gram of lipid. […] All samples were weighed on a Sartorius CPA225D-0CE analytical balance (Sartorius AG, Gottingen, Germany) with a resolution of 0.01 mg.

What is called IC50 is the concentration needed to halve the response being measured. Broadly, the melting point is the temperature of the solid-liquid transition.

Entries after “also recorded” stand apart in the source; their conditions may differ.

Turning to `O=C(C1=C(O)c2ccccc2S(=O)(=O)N1)c1ccccc1` [Compound 4a], the “Level of reactive oxygen species (ROS)” value in data set [1] is “statistically significant increase”. Besides, the 50% inhibitory concentration (IC50) in data set [2] was 91.2 µM. In data set [3], the IC50 was determined as 54.6 µM, the “COX-2/COX-1 selectivity compared with meloxicam” value (“COX-2/COX-1 selectivity” for short) was “higher COX-2/COX-1 selectivity than for meloxicam”, the “COX-2 inhibition effect compared with meloxicam” value is recorded as “stronger COX-2 inhibition effect than the meloxicam” and the “Ratio: COX-2/COX-1” value is 0.6. Also, in data set [4], the “Mitochondrial activity of NHDF cells” value was “statistically significant increase” and the “Cytotoxic effect on NHDF cells” value was “no cytotoxic effect was observed”.
`O=C(C1=C(O)c2ccccc2S(=O)(=O)N1)c1ccc(Cl)cc1` [Compound 4c] returned an IC50 in data set [2] of 89 µM. Also, in data set [3], the half-inhibitory concentration (IC50) came to 55.9 µM, the “COX-2/COX-1 selectivity” value is recorded as “higher COX-2/COX-1 selectivity than for meloxicam”, the “COX-2 inhibition effect compared with meloxicam” value is on record as “stronger COX-2 inhibition effect than the meloxicam” and the “Ratio: COX-2/COX-1” value was 0.63. Besides, in data set [4], the “Mitochondrial activity of NHDF cells” value is “statistically significant increase” and the “Cytotoxic effect on NHDF cells” value is “no cytotoxic effect was observed”.
In turn, `Cc1ccc(C(=O)C2=C(O)c3ccccc3S(=O)(=O)N2)cc1` [Compound 4d] registered a half-inhibitory concentration (IC50) in data set [2] of 89.3 µM. Moreover, in data set [3], the IC50 amounted to 55.3 µM, the “COX-2/COX-1 selectivity” value is recorded as “higher COX-2/COX-1 selectivity than for meloxicam”, the “COX-2 inhibition effect compared with meloxicam” value was “stronger COX-2 inhibition effect than the meloxicam” and the “Ratio: COX-2/COX-1” value is listed as 0.62.
Consider `O=C1C2=C(c3ccccc3)OCCN2S(=O)(=O)c2ccccc21` [Compound 5, 6,6-dioxo-1-phenyl-3,4-dihydro-[1,4] oxazino [4,3-b][1,2]benzothiazin-11-one], for which the melting point was 182 to 183 °C. In data set [2], this molecule yielded a half-inhibitory concentration (IC50) of 66.1 µM. Further, in data set [3], the IC50 amounted to 56.9 µM, the “COX-2 inhibition effect compared with meloxicam” value is “stronger COX-2 inhibition effect than the meloxicam” and the “Ratio: COX-2/COX-1” value was determined as 0.86.
With `O=C1C2=C(c3ccccc3)OCCCN2S(=O)(=O)c2ccccc21` [Compound 6a, 7,7-dioxo-1-phenyl-4,5-dihydro-3H-[1,4]oxazepino[4,3-b][1,2]benzothiazin-12-one], the melting point is 171 to 172 °C. The same molecule showed an IC50 in data set [2] of 106 µM. Moreover, in data set [3], the half-maximal inhibitory concentration (IC50) came out at 89.9 µM and the “Ratio: COX-2/COX-1” value worked out at 0.85.
With `O=C1C2=C(c3ccc(Br)cc3)OCCCN2S(=O)(=O)c2ccccc21` [Compound 6b, 1-(4-bromophenyl)-7,7-dioxo-4,5-dihydro-3H-[1,4]oxazepino[4,3-b][1,2]benzothiazin-12-one], the IC50 stood at 86.9 µM in data set [2] and 95.1 µM in data set [3]. Further, the “Decrease in culture viability” value in data set [4] (100 µM, in comparison to control) was “less than 30%”.
With `O=C1C2=C(c3ccc(Cl)cc3)OCCCN2S(=O)(=O)c2ccccc21` [Compound 6c, 1-(4-chlorophenyl)-7,7-dioxo-4,5-dihydro-3H-[1,4]oxazepino[4,3-b][1,2]benzothiazin-12-one], the melting point was 168 to 170 °C. In data set [2], this molecule showed a concentration for half-maximal inhibition (IC50) of 89.8 µM. For the same molecule, in data set [3], the 50% inhibitory concentration (IC50) came out at 94.1 µM and the “Ratio: COX-2/COX-1” value came out at 1.05. Also, the “Mitochondrial activity of NHDF cells” value in data set [4] is on record as “statistically significant increase”. Besides, in data set [5], the “Effect on DPPC gel-liquid crystalline phase transition parameters (Tm, T½, ΔH)” value (from here on “Effect … (Tm, T½, ΔH)”) was “most pronounced effects”.
`Cc1ccc(C2=C3C(=O)c4ccccc4S(=O)(=O)N3CCCO2)cc1` [Compound 6d, 7,7-dioxo-1-(p-tolyl)-4,5-dihydro-3H-[1,4]oxazepino[4,3-b][1,2]benzothiazin-12-one] came in with a melting point of 204 to 206 °C. In data set [2], this molecule had a 50% inhibitory concentration (IC50) of 126 µM. Moreover, in data set [3], the concentration for half-maximal inhibition (IC50) was found to be 92.9 µM and the “Ratio: COX-2/COX-1” value worked out at 0.74. Besides, in data set [5], the “Effect … (Tm, T½, ΔH)” value was “most pronounced effects”.
For the molecule `COc1ccc(C2=C3C(=O)c4ccccc4S(=O)(=O)N3CCCO2)cc1` [Compound 6e, 1-(4-methoxyphenyl)-7,7-dioxo-4,5-dihydro-3H-[1,4]oxazepino[4,3-b][1,2]benzothiazin-12-one], the melting point was 144 to 145 °C. This molecule also showed a half-inhibitory concentration (IC50) in data set [2] of 115 µM. For the same molecule, in data set [3], the IC50 was found to be 56.9 µM, the “COX-2/COX-1 selectivity” value was “higher COX-2/COX-1 selectivity than for meloxicam; also recorded: most selective inhibitor of COX-2”, the “COX-2 inhibition effect compared with meloxicam” value is recorded as “stronger COX-2 inhibition effect than the meloxicam” and the “Ratio: COX-2/COX-1” value was found to be 0.49. Besides, the “Effect … (Tm, T½, ΔH)” value in data set [5] was “most pronounced effects”.
Consider `O=C1C2=C(c3ccccc3)OCCCCN2S(=O)(=O)c2ccccc21` [Compound 7, 8,8-dioxo-1-phenyl-3,4,5,6-tetrahydro-[1,4]oxazocino[4,3-b][1,2]benzothiazin-13-one], for which the melting point was in the range of 198 to 201 °C. Also, the IC50 in data set [2] was determined as 86.1 µM. Also, in data set [3], the IC50 came to 54 µM, the “COX-2/COX-1 selectivity” value is “higher COX-2/COX-1 selectivity than for meloxicam”, the “COX-2 inhibition effect compared with meloxicam” value was “stronger COX-2 inhibition effect than the meloxicam” and the “Ratio: COX-2/COX-1” value came to 0.63.
